Experimental data published in ChEMBL document CHEMBL1201862, “PubChem BioAssay data set” (2004).
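Grown in 96-well plates, cells were treated for 48 hours with each compound at five concentrations. Insufficient inhibition: endpoint recorded as highest concentration tested. GI50 is the concentration that inhibits growth by half.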 The source made the active and inactive calls. No stated cut-off is given here; in the data, active = GI50 up to about 1.1 µM and inactive = higher.

What was measured:
Experiment in all cases: NCI tumour cell line growth inhibition, 48 h
SK-MEL-5 = tested on: SK-MEL-5
SR = tested on: SR
SN12C = tested on: SN12C
SNB-75 = tested on: SNB-75
A498 = tested on: A498
BT-549 = tested on: BT-549
PC-3 = tested on: PC-3
SK-MEL-2 = tested on: SK-MEL-2
SF-295 = tested on: SF-295
SF-268 = tested on: SF-268
NCI-H522 = tested on: NCI-H522
U-251 = tested on: U-251
HOP-62 = tested on: HOP-62
UACC-62 = tested on: UACC-62
Malme-3M = tested on: Malme-3M
Hs-578T = tested on: Hs-578T
K562 = tested on: K562
NCI-H226 = tested on: NCI-H226
HCC 2998 = tested on: HCC 2998

| Structure (SMILES) | GI50 (SK-MEL-5) | GI50 (SR) | GI50 (SN12C) | GI50 (SNB-75) | GI50 (A498) | GI50 (BT-549) | GI50 (PC-3) | GI50 (SK-MEL-2) | GI50 (SF-295) | GI50 (SF-268) | GI50 (NCI-H522) | GI50 (U-251) | GI50 (HOP-62) | GI50 (UACC-62) | GI50 (Malme-3M) | GI50 (Hs-578T) | GI50 (K562) | GI50 (NCI-H226) | GI50 (HCC 2998) |
| --- | --- | --- | --- | --- | --- | --- | --- | --- | --- | --- | --- | --- | --- | --- | --- | --- | --- | --- | --- |
| Oc1c(CN2CCN(c3ccccc3)CC2)cc(Br)c2cccnc12 | 0.805 µM (active) | 0.284 µM (active) | 0.991 µM (active) | 3.78 µM (inactive) | 7.46 µM (inactive) | 7.52 µM (inactive) | 4.22 µM (inactive) | 2.17 µM (inactive) | 1.21 µM (inactive) | 0.893 µM (active) | 0.555 µM (active) | 0.671 µM (active) | 1.33 µM (inactive) | 1.01 µM (active) | 0.995 µM (active) | 3.33 µM (inactive) | – | – | – |
| CCC(=O)OCc1ccc2oc(=O)c(C(=O)Oc3cncc(Cl)c3)cc2c1 | > 100 µM (inactive) | 20.8 µM (inactive) | 42.7 µM (inactive) | 79.8 µM (inactive) | – | > 100 µM (inactive) | 46 µM (inactive) | > 100 µM (inactive) | > 100 µM (inactive) | > 100 µM (inactive) | 29.2 µM (inactive) | > 100 µM (inactive) | > 100 µM (inactive) | 52.1 µM (inactive) | 66.7 µM (inactive) | > 100 µM (inactive) | 20.6 µM (inactive) | > 100 µM (inactive) | 35.6 µM (inactive) |
| O=C(CCc1ccc(O)cc1)NCCc1cccc(O)c1 | > 50 µM (inactive) | > 50 µM (inactive) | > 50 µM (inactive) | 0.005 µM (active) | > 50 µM (inactive) | > 50 µM (inactive) | > 50 µM (inactive) | > 50 µM (inactive) | > 50 µM (inactive) | > 50 µM (inactive) | 20.2 µM (inactive) | > 50 µM (inactive) | > 50 µM (inactive) | > 50 µM (inactive) | > 50 µM (inactive) | > 50 µM (inactive) | > 50 µM (inactive) | – | – |
| COc1cc(/C=C/C=C2\CCC/C(=C\C=C\c3ccc(O)c(OC)c3)C2=O)ccc1O | 10.3 µM (inactive) | 1.69 µM (inactive) | 17.3 µM (inactive) | 26.7 µM (inactive) | – | 17.2 µM (inactive) | 6.58 µM (inactive) | 21.2 µM (inactive) | 4.74 µM (inactive) | 5.53 µM (inactive) | 0.895 µM (active) | 17.7 µM (inactive) | 17.3 µM (inactive) | 7.55 µM (inactive) | 10.6 µM (inactive) | 19.5 µM (inactive) | 3.06 µM (inactive) | – | 13.2 µM (inactive) |
| COC(=O)/C=C1/N=C(N(C)/N=C/c2ccccc2)NC1=O | > 100 µM (inactive) | > 100 µM (inactive) | > 100 µM (inactive) | > 100 µM (inactive) | – | > 100 µM (inactive) | > 100 µM (inactive) | > 100 µM (inactive) | > 100 µM (inactive) | > 100 µM (inactive) | > 100 µM (inactive) | – | > 100 µM (inactive) | > 100 µM (inactive) | > 100 µM (inactive) | > 100 µM (inactive) | > 100 µM (inactive) | – | > 100 µM (inactive) |
| COc1ccc(C(=O)C(CC2C(=O)CC(C)(C)C(C(=O)C(=O)Nc3c(C)cccc3C)C2=O)c2ccc(OC)cc2)cc1 (stereo not given) | > 100 µM (inactive) | 22.9 µM (inactive) | > 100 µM (inactive) | > 100 µM (inactive) | – | > 100 µM (inactive) | > 100 µM (inactive) | > 100 µM (inactive) | > 100 µM (inactive) | > 100 µM (inactive) | > 100 µM (inactive) | > 100 µM (inactive) | > 100 µM (inactive) | > 100 µM (inactive) | – | > 100 µM (inactive) | – | > 100 µM (inactive) | > 100 µM (inactive) |
| Clc1ccc(/C=C/c2nc(-c3ccccc3)cn3c2nc2ccccc23)cc1Cl | 50.2 µM (inactive) | 33.7 µM (inactive) | 38.1 µM (inactive) | – | > 100 µM (inactive) | 61.7 µM (inactive) | 62.4 µM (inactive) | > 100 µM (inactive) | – | 59 µM (inactive) | – | 42 µM (inactive) | 59.2 µM (inactive) | > 100 µM (inactive) | – | – | 43.6 µM (inactive) | > 100 µM (inactive) | 43.5 µM (inactive) |
| CC(C)(C)Cc1cc(O)ccc1O | – | 24 µM (inactive) | 51.3 µM (inactive) | 58.9 µM (inactive) | > 100 µM (inactive) | 93.3 µM (inactive) | > 100 µM (inactive) | – | 44 µM (inactive) | 87.9 µM (inactive) | 27 µM (inactive) | 43.5 µM (inactive) | > 100 µM (inactive) | > 100 µM (inactive) | > 100 µM (inactive) | – | 48.3 µM (inactive) | > 100 µM (inactive) | 51.9 µM (inactive) |
